Measured values taken from US11739078B2, “Methods of inhibiting kinases” (INSILICO MEDICINE IP LIMITED, priority 2019, dated 2023).
Where two headings read alike, the source gives them in different places.

Tests used:
[1] = biological target: MAP4K4 (h) (Homo sapiens (Human), UniProt O95819); assay: MAP4K4 in vitro kinase assay (radiometric); format: biochemical; conditions: read-out: MAP4K4_IC50
Procedure: (§1) (specific activity and concentration as required). The reaction is initiated by the addition of the Mg/ATP mix. After incubation for 40 minutes at room temperature, the reaction is stopped by the addition of phosphoric acid to a concentration of 0.5%.

[2] = biological target: TNIK (Homo sapiens (Human), UniProt Q9UKE5); assay: TNIK enzymatic assay (radiometric kinase inhibition); format: biochemical
Procedure: as §1, with “The compounds were studied for function as TNIK inhibitors to generate the data of Table 1. […] (specific” for “(specific”

[3] = TNIK enzymatic assay, Table 1, read-out: IC50

MAP4K4 (h), sequence (O95819 whole entry): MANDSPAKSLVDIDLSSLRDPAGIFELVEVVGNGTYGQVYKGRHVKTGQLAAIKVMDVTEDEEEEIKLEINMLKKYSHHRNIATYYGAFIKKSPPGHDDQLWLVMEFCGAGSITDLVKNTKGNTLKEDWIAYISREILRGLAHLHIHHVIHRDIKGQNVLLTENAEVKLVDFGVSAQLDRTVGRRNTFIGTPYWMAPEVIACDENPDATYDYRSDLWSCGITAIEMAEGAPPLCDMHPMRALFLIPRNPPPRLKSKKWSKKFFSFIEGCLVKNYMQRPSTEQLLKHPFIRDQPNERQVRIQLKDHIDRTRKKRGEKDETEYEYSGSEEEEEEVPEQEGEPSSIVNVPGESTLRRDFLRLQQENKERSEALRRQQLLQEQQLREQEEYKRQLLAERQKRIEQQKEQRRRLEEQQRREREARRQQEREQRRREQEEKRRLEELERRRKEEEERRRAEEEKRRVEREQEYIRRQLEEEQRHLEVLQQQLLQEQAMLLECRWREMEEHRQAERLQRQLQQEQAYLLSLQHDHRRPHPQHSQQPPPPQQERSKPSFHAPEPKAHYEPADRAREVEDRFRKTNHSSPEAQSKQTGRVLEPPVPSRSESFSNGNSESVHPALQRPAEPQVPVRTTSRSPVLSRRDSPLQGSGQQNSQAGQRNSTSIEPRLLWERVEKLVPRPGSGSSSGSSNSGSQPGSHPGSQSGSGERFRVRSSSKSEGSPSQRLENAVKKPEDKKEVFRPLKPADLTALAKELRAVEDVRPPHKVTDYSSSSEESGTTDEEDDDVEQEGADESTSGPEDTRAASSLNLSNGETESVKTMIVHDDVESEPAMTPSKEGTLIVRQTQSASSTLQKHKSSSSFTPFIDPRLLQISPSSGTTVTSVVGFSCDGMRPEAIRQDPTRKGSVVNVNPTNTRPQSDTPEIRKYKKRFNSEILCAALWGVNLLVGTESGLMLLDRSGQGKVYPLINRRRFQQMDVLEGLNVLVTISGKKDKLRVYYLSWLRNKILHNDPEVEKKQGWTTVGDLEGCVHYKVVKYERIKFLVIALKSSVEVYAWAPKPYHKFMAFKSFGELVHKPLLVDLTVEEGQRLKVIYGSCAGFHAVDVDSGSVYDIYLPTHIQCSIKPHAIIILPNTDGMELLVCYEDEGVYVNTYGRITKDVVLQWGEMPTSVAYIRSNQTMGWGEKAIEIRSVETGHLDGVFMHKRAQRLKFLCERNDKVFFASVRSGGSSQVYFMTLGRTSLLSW
TNIK, sequence (Q9UKE5 whole entry): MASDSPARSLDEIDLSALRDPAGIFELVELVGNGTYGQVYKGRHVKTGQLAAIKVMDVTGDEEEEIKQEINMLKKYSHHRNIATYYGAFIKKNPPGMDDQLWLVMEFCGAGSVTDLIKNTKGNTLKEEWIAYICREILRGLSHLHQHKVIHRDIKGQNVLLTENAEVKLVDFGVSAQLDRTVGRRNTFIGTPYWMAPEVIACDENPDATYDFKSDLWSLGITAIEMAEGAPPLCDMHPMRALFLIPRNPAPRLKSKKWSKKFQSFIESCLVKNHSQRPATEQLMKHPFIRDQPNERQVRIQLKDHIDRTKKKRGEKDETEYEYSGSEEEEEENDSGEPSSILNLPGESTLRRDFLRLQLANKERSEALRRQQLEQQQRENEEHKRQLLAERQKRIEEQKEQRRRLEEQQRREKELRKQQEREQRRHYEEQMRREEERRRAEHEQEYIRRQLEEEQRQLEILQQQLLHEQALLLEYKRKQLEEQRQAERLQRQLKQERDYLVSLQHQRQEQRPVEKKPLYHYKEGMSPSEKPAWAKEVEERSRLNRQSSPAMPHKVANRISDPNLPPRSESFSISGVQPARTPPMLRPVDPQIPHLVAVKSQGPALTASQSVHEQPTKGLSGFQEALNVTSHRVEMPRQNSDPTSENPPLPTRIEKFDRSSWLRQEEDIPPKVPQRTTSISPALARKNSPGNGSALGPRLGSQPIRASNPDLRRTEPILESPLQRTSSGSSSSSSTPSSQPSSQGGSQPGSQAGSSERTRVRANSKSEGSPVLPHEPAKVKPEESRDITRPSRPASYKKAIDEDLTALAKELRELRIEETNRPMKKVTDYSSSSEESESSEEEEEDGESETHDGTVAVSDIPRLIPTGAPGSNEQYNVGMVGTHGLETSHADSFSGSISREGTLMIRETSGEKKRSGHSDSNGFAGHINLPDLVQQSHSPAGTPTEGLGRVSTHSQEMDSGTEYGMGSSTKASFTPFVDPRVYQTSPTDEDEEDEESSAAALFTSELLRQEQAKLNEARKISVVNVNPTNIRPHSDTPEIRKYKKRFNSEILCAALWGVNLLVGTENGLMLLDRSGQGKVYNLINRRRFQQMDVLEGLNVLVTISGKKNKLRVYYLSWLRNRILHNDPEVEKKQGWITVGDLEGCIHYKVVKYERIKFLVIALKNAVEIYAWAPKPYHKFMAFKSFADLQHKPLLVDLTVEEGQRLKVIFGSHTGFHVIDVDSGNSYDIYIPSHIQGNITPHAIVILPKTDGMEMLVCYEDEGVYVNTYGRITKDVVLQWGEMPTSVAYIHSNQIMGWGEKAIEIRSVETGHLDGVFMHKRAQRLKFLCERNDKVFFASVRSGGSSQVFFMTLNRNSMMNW

| IC50 [1] | IC50 [2, 3] | IC50 ([2]; read-out: TNIK_IC50) | Compound |
| --- | --- | --- | --- |
| 457 nM | 135 nM | 135 nM | Cc1ccc(C)c(NC(=O)c2ccc(-c3c(-c4ccc(F)cc4)ncn3C3CCCC3)o2)c1 [Compound 31, 5-(1-cyclopentyl-4-(4-fluorophenyl)-1H-imidazol-5-yl)-N-(2,5-dimethylphenyl)furan-2-carboxamide] |
| 96.9 nM | 12 nM | 12 nM | Cc1ccc(NC(=O)c2ccc(-c3c(-c4ccc(F)cc4)ncn3C3CCCC3)o2)c(C)c1 [Compound 32, 5-(1-cyclopentyl-4-(4-fluorophenyl)-1H-imidazol-5-yl)-N-(2,4-dimethylphenyl)furan-2-carboxamide] |
| 87.3 nM | 27 nM | 27 nM | CCOC(=O)c1ccc(NC(=O)c2ccc(-c3c(-c4ccc(F)cc4)ncn3C3CCCC3)o2)cc1 [Compound 33, ethyl 4-(5-(1-cyclopentyl-4-(4-fluorophenyl)-1H-imidazol-5-yl)furan-2-carboxamido)benzoate] |
| 240 nM | 319 nM | 319 nM | Cc1cc(C)c(NC(=O)c2ccc(-c3c(-c4ccc(F)cc4)ncn3C3CCCC3)o2)c(C)c1 [Compound 34, 5-(1-cyclopentyl-4-(4-fluorophenyl)-1H-imidazol-5-yl)-N-mesitylfuran-2-carboxamide] |
| 274 nM | 151 nM | 151 nM | CC(=O)c1cccc(NC(=O)c2ccc(-c3c(-c4ccc(F)cc4)ncn3C3CCCC3)o2)c1 [Compound 35, N-(3-acetylphenyl)-5-(1-cyclopentyl-4-(4-fluorophenyl)-1H-imidazol-5-yl)furan-2-carboxamide] |
| 326 nM | 110 nM | 110 nM | CSc1cccc(NC(=O)c2ccc(-c3c(-c4ccc(F)cc4)ncn3C3CCCC3)o2)c1 [Compound 36, 5-(1-cyclopentyl-4-(4-fluorophenyl)-1H-imidazol-5-yl)-N-(3-(methylthio)phenyl)furan-2-carboxamide] |
| > 1000 nM | 900 nM | 900 nM | CCc1cccc(C)c1NC(=O)c1ccc(-c2c(-c3ccc(F)cc3)ncn2C2CCCC2)o1 [Compound 37, 5-(1-cyclopentyl-4-(4-fluorophenyl)-1H-imidazol-5-yl)-N-(2-ethyl-6-methylphenyl)furan-2-carboxamide] |
| 168 nM | 46 nM | 46 nM | CC(C)c1ccc(NC(=O)c2ccc(-c3c(-c4ccc(F)cc4)ncn3C3CCCC3)o2)cc1 [Compound 38, 5-(1-cyclopentyl-4-(4-fluorophenyl)-1H-imidazol-5-yl)-N-(4-isopropylphenyl)furan-2-carboxamide] |
| > 1000 nM | 480 nM | 480 nM | CCc1cccc(NC(=O)c2ccc(-c3c(-c4ccc(F)cc4)ncn3C3CCCC3)o2)c1 [Compound 39, 5-(1-cyclopentyl-4-(4-fluorophenyl)-1H-imidazol-5-yl)-N-(3-ethylphenyl)furan-2-carboxamide] |
| 243 nM | 102 nM | 102 nM | Cc1ccc(NC(=O)c2ccc(-c3c(-c4ccc(F)cc4)ncn3C3CCCC3)o2)cc1F [Compound 40, 5-(1-cyclopentyl-4-(4-fluorophenyl)-1H-imidazol-5-yl)-N-(3-fluoro-4-methylphenyl)furan-2-carboxamide] |
| 639 nM | 180 nM | 180 nM | O=C(Nc1ccc(F)c(F)c1)c1ccc(-c2c(-c3ccc(F)cc3)ncn2C2CCCC2)o1 [Compound 41, 5-(1-cyclopentyl-4-(4-fluorophenyl)-1H-imidazol-5-yl)-N-(3,4-difluorophenyl)furan-2-carboxamide] |
| 41.3 nM | 19 nM | 19 nM | O=C(Nc1ccc(Cl)cc1F)c1ccc(-c2c(-c3ccc(F)cc3)ncn2C2CCCC2)o1 [Compound 42, N-(4-chloro-2-fluorophenyl)-5-(1-cyclopentyl-4-(4-fluorophenyl)-1H-imidazol-5-yl)furan-2-carboxamide] |
| 139 nM | 172 nM | 172 nM | Cc1cc(F)ccc1NC(=O)c1ccc(-c2c(-c3ccc(F)cc3)ncn2C2CCCC2)o1 [Compound 43, 5-(1-cyclopentyl-4-(4-fluorophenyl)-1H-imidazol-5-yl)-N-(4-fluoro-2-methylphenyl)furan-2-carboxamide] |
| 610 nM | 523 nM | 523 nM | O=C(Nc1ccc(OC(F)(F)F)cc1)c1ccc(-c2c(-c3ccc(F)cc3)ncn2C2CCCC2)o1 [Compound 44, 5-(1-cyclopentyl-4-(4-fluorophenyl)-1H-imidazol-5-yl)-N-(4-(trifluoromethoxy)phenyl)furan-2-carboxamide] |
| 165 nM | 165 nM | 165 nM | COc1ccc(NC(=O)c2ccc(-c3c(-c4ccc(F)cc4)ncn3C3CCCC3)o2)cc1Cl [Compound 45, N-(3-chloro-4-methoxyphenyl)-5-(1-cyclopentyl-4-(4-fluorophenyl)-1H-imidazol-5-yl)furan-2-carboxamide] |
| 30.9 nM | 24 nM | 24 nM | CC(=O)Nc1ccc(NC(=O)c2ccc(-c3c(-c4ccc(F)cc4)ncn3C3CCCC3)o2)cc1 [Compound 46, N-(4-acetamidophenyl)-5-(1-cyclopentyl-4-(4-fluorophenyl)-1H-imidazol-5-yl)furan-2-carboxamide] |
| 51.6 nM | < 10 nM | 43.2 nM | Cc1ccc(NC(=O)c2ccc(-c3c(-c4ccc(F)cc4)ncn3C3CCCC3)o2)cc1 [Compound 47, 5-(1-cyclopentyl-4-(4-fluorophenyl)-1H-imidazol-5-yl)-N-(p-tolyl)furan-2-carboxamide] |
| 163 nM | 40 nM | 40 nM | Cc1cccc(NC(=O)c2ccc(-c3c(-c4ccc(F)cc4)ncn3C3CCCC3)o2)c1 [Compound 48, 5-(1-cyclopentyl-4-(4-fluorophenyl)-1H-imidazol-5-yl)-N-(m-tolyl)furan-2-carboxamide] |
| 436 nM | 152 nM | 152 nM | O=C(Nc1ccc(Br)cc1)c1ccc(-c2c(-c3ccc(F)cc3)ncn2C2CCCC2)o1 [Compound 49, N-(4-bromophenyl)-5-(1-cyclopentyl-4-(4-fluorophenyl)-1H-imidazol-5-yl)furan-2-carboxamide] |
| 4.46 nM | < 10 nM | 3.86 nM | COc1ccccc1NC(=O)c1ccc(-c2c(-c3ccc(F)cc3)ncn2C2CCCC2)o1 [Compound 50, 5-(1-cyclopentyl-4-(4-fluorophenyl)-1H-imidazol-5-yl)-N-(2-methoxyphenyl)furan-2-carboxamide] |
| 126 nM | 57 nM | 57 nM | CC(=O)c1ccc(NC(=O)c2ccc(-c3c(-c4ccc(F)cc4)ncn3C3CCCCC3)o2)cc1 [Compound 51, N-(4-acetylphenyl)-5-(1-cyclohexyl-4-(4-fluorophenyl)-1H-imidazol-5-yl)furan-2-carboxamide] |
| 104 nM | 60 nM | 60 nM | COc1ccc(NC(=O)c2ccc(-c3c(-c4ccc(F)cc4)ncn3C3CCCCC3)o2)cc1OC [Compound 52, 5-(1-cyclohexyl-4-(4-fluorophenyl)-1H-imidazol-5-yl)-N-(3,4-dimethoxyphenyl)furan-2-carboxamide] |
